Test results published in ChEMBL document CHEMBL1201862, “PubChem BioAssay data set” (2004).
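Five compound concentrations were applied to cells in 96-well plates for 48 hours; endpoints were derived by simple linear interpolation of the resulting dose-response curve. GI50 = concentration required for 50% inhibition of growth.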 Active and inactive are the calls of the source. Rule as the data show it: active = GI50 up to about 1.1 µM and inactive = higher.

What was measured:
Test in all cases: inhibition of tumour cell growth, NCI panel, 48 h
[1] = system: HCT-15
[2] = system: CAKI-1
[3] = system: Malme-3M
[4] = system: OVCAR-4
[5] = system: UACC-257
[6] = system: U-251
[7] = system: T47D
[8] = system: NCI-H522
[9] = system: HCC 2998
[10] = system: SR
[11] = system: NCI/ADR-RES
[12] = system: UO-31
[13] = system: NCI-H460
[14] = system: BT-549
[15] = system: KM12
[16] = system: SK-MEL-5
[17] = system: A498
[18] = system: SF-295
[19] = system: SNB-19
[20] = system: IGROV-1
[21] = system: SNB-75
[22] = system: OVCAR-3
[23] = system: TK-10
[24] = system: EKVX
[25] = system: HL-60
[26] = system: HT-29
[27] = system: HCT-116
[28] = system: HOP-92
[29] = system: RPMI-8226
[30] = system: MDA-MB-435
[31] = system: SK-MEL-28
[32] = system: OVCAR-5
[33] = system: SK-OV-3
[34] = system: HOP-62
[35] = system: MOLT-4
[36] = system: OVCAR-8
[37] = system: SN12C
[38] = system: K562
[39] = system: NCI-H23
[40] = system: NCI-H226
[41] = system: M14
[42] = system: Hs-578T
[43] = system: DU-145
[44] = system: LOX IMVI
[45] = system: SK-MEL-2
[46] = system: SW-620
[47] = system: RXF 393
[48] = system: COLO 205
[49] = system: ACHN
[50] = system: MDA-N
[51] = system: SF-539
[52] = system: SF-268
[53] = system: MDA-MB-231
[54] = system: A549
[55] = system: 786-0
[56] = system: UACC-62
[57] = system: PC-3
[58] = system: MCF7
[59] = system: CCRF-CEM

Q: Which GI50 [1] does the source give for O=C1N[C@H]2c3c(Cl)sc(Cl)c3C(=O)[C@H]2O1 here?
A: 2.38 µM

Q: What about the GI50 [2] of the same compound?
A: 17.8 µM (inactive)

Q: What about the GI50 [3] of the same compound?
A: 10.1 µM (inactive)

Q: And the GI50 [4]?
A: 21.9 µM (inactive)

Q: And the GI50 [5]?
A: 16.8 µM (inactive)

Q: And the GI50 [6]?
A: 5.51 µM (inactive)

Q: And the GI50 [7]?
A: 31.6 µM (inactive)

Q: What about the GI50 [8] of the same compound?
A: 1.68 µM (inactive)

Q: What about the GI50 [9] of the same compound?
A: 5.46 µM (inactive)

Q: What about the GI50 [10] of the same compound?
A: 2.09 µM (inactive)

Q: And the GI50 [11]?
A: 15.5 µM (inactive)

Q: And the GI50 [12]?
A: 19.1 µM (inactive)

Q: What about the GI50 [13] of the same compound?
A: 8.89 µM (inactive)

Q: What about the GI50 [14] of the same compound?
A: 22.3 µM (inactive)

Q: What about the GI50 [15] of the same compound?
A: 39.1 µM (inactive)

Q: And the GI50 [16]?
A: 24 µM (inactive)

Q: And the GI50 [17]?
A: 20.2 µM (inactive)

Q: And the GI50 [18]?
A: 18.8 µM (inactive)

Q: What about the GI50 [19] of the same compound?
A: 20.6 µM (inactive)

Q: And the GI50 [20]?
A: 3.55 µM (inactive)

Q: What about the GI50 [21] of the same compound?
A: 19.1 µM (inactive)

Q: What about the GI50 [22] of the same compound?
A: 17.3 µM (inactive)

Q: And the GI50 [23]?
A: 64.1 µM (inactive)

Q: And the GI50 [24]?
A: 12.3 µM (inactive)

Q: What about the GI50 [25] of the same compound?
A: 1.79 µM (inactive)

Q: And the GI50 [26]?
A: 4.38 µM (inactive)

Q: What about the GI50 [27] of the same compound?
A: 3.64 µM (inactive)

Q: And the GI50 [28]?
A: 18.5 µM (inactive)

Q: What about the GI50 [29] of the same compound?
A: 19.7 µM (inactive)

Q: What about the GI50 [30] of the same compound?
A: 14.3 µM (inactive)

Q: What about the GI50 [31] of the same compound?
A: 6.79 µM (inactive)

Q: What about the GI50 [32] of the same compound?
A: 22.1 µM (inactive)

Q: And the GI50 [33]?
A: 23.1 µM (inactive)

Q: And the GI50 [34]?
A: 20.9 µM (inactive)

Q: What about the GI50 [35] of the same compound?
A: 2.01 µM (inactive)

Q: And the GI50 [36]?
A: 4.31 µM (inactive)

Q: And the GI50 [37]?
A: 8.71 µM (inactive)

Q: What about the GI50 [38] of the same compound?
A: 2.99 µM (inactive)

Q: And the GI50 [39]?
A: 10.5 µM (inactive)

Q: What about the GI50 [40] of the same compound?
A: 17.9 µM (inactive)

Q: What about the GI50 [41] of the same compound?
A: 9.82 µM (inactive)

Q: What about the GI50 [42] of the same compound?
A: 17.9 µM (inactive)

Q: And the GI50 [43]?
A: 23.4 µM (inactive)

Q: What about the GI50 [44] of the same compound?
A: 3.61 µM (inactive)

Q: What about the GI50 [45] of the same compound?
A: 24 µM (inactive)

Q: And the GI50 [46]?
A: 2.84 µM (inactive)

Q: And the GI50 [47]?
A: 25.6 µM (inactive)

Q: What about the GI50 [48] of the same compound?
A: 14 µM (inactive)

Q: What about the GI50 [49] of the same compound?
A: 13.4 µM (inactive)

Q: And the GI50 [50]?
A: 24 µM (inactive)

Q: And the GI50 [51]?
A: 9.68 µM (inactive)

Q: And the GI50 [52]?
A: 17 µM (inactive)

Q: What about the GI50 [53] of the same compound?
A: 25.6 µM (inactive)

Q: What about the GI50 [54] of the same compound?
A: 36.8 µM (inactive)

Q: And the GI50 [55]?
A: 20.2 µM (inactive)

Q: What about the GI50 [56] of the same compound?
A: 19.1 µM (inactive)

Q: What about the GI50 [57] of the same compound?
A: 18.2 µM (inactive)

Q: And the GI50 [58]?
A: 39.8 µM (inactive)

Q: And the GI50 [59]?
A: 2.58 µM (inactive)
